Results reported in paper PMC10901556, “Conservation of Affinity Rather Than Sequence Underlies a Dynamic Evolution of the Motif-Mediated p53/MDM2 Interaction in Ray-Finned Fishes” (Molecular Biology and Evolution, 2024).
Where two headings read alike, the source gives them in different places. One block for each compound: values may come before it. Where no end group is shown, it is not given here.

Tests used:
Test in all cases: Fluorescence polarization displacement assay
Format in all cases: binding
[1] = target: T1, MDM2H.sapiens SWIB domain (Homo sapiens, UniProt Q00987)
T1 construct: NusA-TEV-His6-PreScission (N, cleaved yes); made in house; host or cells: Escherichia coli BL21 (DE3)

[2] = target: MDM2 SWIB domain, Oncorhynchus kisutch; conditions: for Kd: FP displacement of FITC-p53TADhuman^15–26 (15 nM) from MDM2, KD from IC50, 20 mM sodium phosphate pH 7.4, 150 mM NaCl, 1 mM TCEP; for IC50 / Ki: O.kis MDM2 2000 nM
[3] = target: MDM2 SWIB domain, Takifugu rubripes; conditions: for IC50 / Ki: T.rub MDM2 1500 nM
[4] = target: MDM2 SWIB domain, Clupea harengus; conditions: for Kd: FP displacement of FITC-p53TADhuman^15–26 (15 nM) from MDM2 (1 μM), KD from IC50, 20 mM sodium phosphate pH 7.4, 150 mM NaCl, 1 mM TCEP
[5] = target: MDM2 SWIB domain, Anguilla anguilla; conditions: for Kd: FP displacement of FITC-p53TADhuman^15–26 (15 nM) from MDM2 (1 μM), KD from IC50, 20 mM sodium phosphate pH 7.4, 150 mM NaCl, 1 mM TCEP
[6] = labeled probe 15 nM, replicate 1, read-out: IC50 [M] (IT)
[7] = labeled probe 15 nM, replicate 2, read-out: IC50 [M] (IT)
[8] = labeled probe 15 nM, replicate 3, read-out: IC50 [M] (IT)
[9] = average of the replicates, probe 15 nM, Kd for probe […], read-out: Ki [nM] Average
[10] = average of the replicates, probe 15 nM, Kd for probe […], read-out: Ki [µM] Average
[11] = calculated from IC50, Kd for probe […], probe 15 nM, replicate 1, read-out: Ki
[12] = calculated from IC50, Kd for probe […], probe 15 nM, replicate 2, read-out: Ki
[13] = calculated from IC50, Kd for probe […], probe 15 nM, replicate 3, read-out: Ki
[14] = mean of the replicates, probe 15 nM, read-out: IC50 [nM], mean of the replicates
[15] = equals the mean of the replicates, read-out: IC50 [nM], mean
[16] = mean of the replicates (n = 3 or 6), read-out: Ki [nM] Average
[17] = mean of the replicates (n = 3 or 6), read-out: Ki [µM] Average
[18] = replicate 1, MDM2 1000 nM, labeled probe 15 nM, read-out: IC50 [M] (IT)
[19] = replicate 1, calculated from IC50 with Kd for probe […], read-out: Ki
[20] = replicate 2, MDM2 1000 nM, labeled probe 15 nM, read-out: IC50 [M] (IT)
[21] = replicate 2, calculated from IC50 with Kd for probe […], read-out: Ki
[22] = replicate 3, MDM2 1000 nM, labeled probe 15 nM, read-out: IC50 [M] (IT)
[23] = replicate 3, calculated from IC50 with Kd for probe […], read-out: Ki

Chain of MDM2 SWIB domain, Oncorhynchus kisutch (as listed by the source): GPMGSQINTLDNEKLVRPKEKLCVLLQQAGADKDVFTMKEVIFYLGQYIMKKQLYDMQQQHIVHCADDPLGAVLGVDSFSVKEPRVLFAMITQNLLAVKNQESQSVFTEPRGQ
T1 sequence (Q00987 with tags, fused parts or gaps): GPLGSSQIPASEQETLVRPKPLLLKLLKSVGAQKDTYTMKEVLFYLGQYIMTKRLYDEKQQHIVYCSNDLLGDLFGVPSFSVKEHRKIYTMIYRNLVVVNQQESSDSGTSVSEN
Chain of MDM2 SWIB domain, Anguilla anguilla (as listed by the source): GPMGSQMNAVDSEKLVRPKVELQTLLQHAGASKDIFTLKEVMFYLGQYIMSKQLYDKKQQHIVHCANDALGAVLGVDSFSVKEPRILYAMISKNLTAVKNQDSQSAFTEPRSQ
Chain of MDM2 SWIB domain, Clupea harengus (as listed by the source): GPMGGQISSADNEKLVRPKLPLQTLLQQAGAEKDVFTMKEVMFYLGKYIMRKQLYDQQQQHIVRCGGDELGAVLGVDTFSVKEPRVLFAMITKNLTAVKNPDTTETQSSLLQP
Chain of MDM2 SWIB domain, Takifugu rubripes (as listed by the source): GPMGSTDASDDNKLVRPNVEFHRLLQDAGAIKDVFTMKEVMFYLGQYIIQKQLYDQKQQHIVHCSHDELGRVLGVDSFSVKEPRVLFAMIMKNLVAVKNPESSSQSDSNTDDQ

Compound: CC[C@H](C)[C@H](NC(=O)[C@H](CO)NC(=O)[C@H](CC(N)=O)NC(=O)[C@H](Cc1c[nH]c2ccccc12)NC(=O)[C@H](CC(C)C)NC(=O)[C@H](CC(=O)O)NC(=O)[C@H](CCC(=O)O)NC(=O)[C@H](Cc1ccccc1)NC(=O)[C@H](CC(=O)O)NC(=O)[C@@H]1CCCN1C(=O)[C@H](CO)NC(=O)[C@H](CC(=O)O)NC(C)=O)C(=O)N[C@H](C(=O)O)C(C)C [C.har p53 P2 short]
IC50 [1]: 2310 nM
Ki [1]: 293 nM

remark on affinity beside the average Ki ([1]; probe 15 nM, protein 200 nM, calculated Ki negative): very high affinity
Compound: CC(C)C[C@H](NC(=O)[C@@H](NC(=O)[C@H](CC(N)=O)NC(=O)[C@H](CC(N)=O)NC(=O)[C@H](CCC(=O)O)NC(=O)[C@H](C)NC(=O)[C@H](CC(C)C)NC(=O)[C@H](CC(C)C)NC(=O)[C@H](CCCCN)NC(=O)[C@H](Cc1c[nH]c2ccccc12)NC(=O)[C@H](CC(C)C)NC(=O)[C@H](CC(=O)O)NC(=O)[C@H](CO)NC(=O)[C@H](Cc1ccccc1)NC(=O)[C@@H](NC(=O)[C@@H](N)CCC(=O)O)[C@@H](C)O)C(C)C)C(=O)O [H.sap p53 P27A]

Compound: Ac-GQCSFQQLWESNM [O.kis p53 P1a short]
IC50 [1]: 23200 nM
Ki [1]: 3150 nM

Compound: Ac-SQDETFQALWNTVT [A.ang p53 P2 short]
IC50 [1]: 5780 nM
Ki [1]: 767 nM

Compound: Ac-SQDSFKELWDQLP [M.zeb p53 P1 short]
IC50 [1]: 2150 nM
Ki [1]: 270 nM

Compound: Ac-SQDSFRELWESVV [C.arg p53 P1 short]
IC50 [1]: 8080 nM
Ki [1]: 1080 nM

Compound: Ac-SQDTFQDLWENVA [T.rub p53 P1 short]
IC50 [1]: 12700 nM
Ki [1]: 1710 nM

Compound: Ac-SQESFEDLWKMNL [O.kis p53 P2 short]
IC50 [1]: 5930 nM
Ki [1]: 787 nM

Compound: Ac-SQESFQDLWNMVT [Acti p53 ML]
IC50 [1]: 1510 nM
Ki [1]: 183 nM

Compound: Ac-SQESFQELWKMIL [Tele p53 AA]
IC50 [1]: 105 nM
KD ([1]; FP displacement, printed in nM (Fig. S4 A native and B human MDM2)): lowest_Kd
Ki, remark beside the average ([1]; H.sap MDM2, labeled probe 15 nM, protein 200 nM, result in words): very high affinity

Compound: Ac-SQESFQELWKMMC [A.ang p53 P1 short]
IC50 [1]: 265 nM
Ki [1]: 12.9 nM

Compound: Ac-SQESFQELWNMVA [Acti p53 AA]
IC50 [1]: 459 nM
Kd [1]: 39 nM

Compound: Ac-SQESFQELWNMVI [L.ocu p53 short]
IC50 [1]: 1050 nM
Ki [1]: 120 nM

Compound: Ac-SQESFQELWNMVM [Tele p53 ML]
IC50 [1]: 456 nM
Kd [1]: 39 nM

Compound: Ac-SQGTFDEIWASNF [C.har p53 P1 short]
IC50 [1]: 9330 nM
Ki [1]: 1250 nM

Kd [2]: 70 ± 10 nM
IC50 [2, 6]: 2.13e-06 M
IC50 [2, 7]: 2.37e-06 M
IC50 [2, 8]: 2.18e-06 M
Ki [2, 9]: 68.6 nM
Ki [2, 10]: 69 nM
Ki [2, 11]: 55.4 nM
Ki [2, 12]: 88.9 nM
Ki [2, 13]: 61.7 nM
IC50 [2, 14]: 2.23e-06 M
Compound: GPMGMADLAENVSLPLSQESFEDLWKMNLNLMAVQPPVTESWVGYDNFMMEAPLQVEFDPSLFEVSATEPAPQPSISTLDTGSPPTST [O.kis p53 P2 full, expressed full-length coho salmon p53TAD paralog 2]

Kd ([3]; FP displacement of FITC-p53TADhuman^15–26 (15 nM) from MDM2, KD from IC50, 20 mM sodium phosphate pH 7.4, 150 mM NaCl, 1 mM TCEP): 470 ± 30 nM
IC50 [3, 6]: 4.93e-06 M
IC50 ([3]; labeled probe 15 nM, replicate 2, read-out: IC50): 4.16e-06 M
IC50 [3, 8]: 4.19e-06 M
IC50 ([3]; labeled probe 15 nM, replicate 4, read-out: IC50 [M] (IT)): 3.43e-06 M
IC50 ([3]; labeled probe 15 nM, replicate 5, read-out: IC50 [M] (IT)): 4.05e-06 M
IC50 ([3]; labeled probe 15 nM, replicate 6, read-out: IC50 [M] (IT)): 4.53e-06 M
Ki ([3]; average of the replicates, probe 15 nM, Kd for probe 290 nM, read-out: Ki [nM] Average): 475 nM
Ki ([3]; average of the replicates, probe 15 nM, Kd for probe 290 nM, read-out: Ki [µM] Average): 475 nM
Ki ([3]; calculated from IC50, Kd for probe 290 nM, probe 15 nM, replicate 1, read-out: Ki): 592 nM
Ki ([3]; calculated from IC50, Kd for probe 290 nM, probe 15 nM, replicate 2, read-out: Ki): 467 nM
Ki ([3]; calculated from IC50, Kd for probe 290 nM, probe 15 nM, replicate 3, read-out: Ki): 471 nM
Ki ([3]; calculated from IC50, Kd for probe 290 nM, probe 15 nM, replicate 4, read-out: Ki): 347 nM
Ki ([3]; calculated from IC50, Kd for probe 290 nM, probe 15 nM, replicate 5, read-out: Ki): 449 nM
Ki ([3]; calculated from IC50, Kd for probe 290 nM, probe 15 nM, replicate 6, read-out: Ki): 527 nM
IC50 [3, 14]: 4.21e-06 M
Compound: GPMGMEDEGFSLPLSQDTFQDLWENVAAPSIVTIPTTSLENEQWHQELLMNYPELPFNEELFNLPSEMASKDSANLSTPT [T.rub p53 P1 full, expressed full-length Japanese puffer p53TAD paralog 1]

Kd [2]: 48 ± 5 nM
IC50 [2, 6]: 2.11e-06 M
IC50 [2, 7]: 2.02e-06 M
IC50 [2, 8]: 2.12e-06 M
Ki [2, 9]: 48.4 nM
Ki [2, 10]: 48 nM
Ki [2, 11]: 52.4 nM
Ki [2, 12]: 38.8 nM
Ki [2, 13]: 54.1 nM
IC50 [2, 14]: 2.08e-06 M
Compound: GPMGMEELSPPLGQCSFQQLWESNMTPQGPSIPLVATENWSDLDVSLLPDATLHKVFDEVLFELLEPPVVEPSVSTLDSVPPPAST [O.kis p53 P1a full, expressed full-length coho salmon p53TAD paralog 1a]

Kd [2]: 60 ± 10 nM
IC50 [2, 6]: 2.27e-06 M
IC50 [2, 7]: 2.26e-06 M
IC50 [2, 8]: 1.96e-06 M
Ki [2, 9]: 59.6 nM
Ki [2, 10]: 60 nM
Ki [2, 11]: 75.2 nM
Ki [2, 12]: 73.4 nM
Ki [2, 13]: 30.3 nM
IC50 [2, 14]: 2.16e-06 M
Compound: GPMGMEEQELSFPMSQGSFQQLWETNMSTQGSNIPPFGTGNWSDLDVSLAPVLPEATFHEDFDEGLFELPEPLAVEPLMSPLDSVPPPAST [O.kis p53 P1b full, expressed full-length coho salmon p53TAD paralog 1b]

Kd [4]: 40 ± 10 nM
IC50 [4, 15]: 904 nM
Ki [4, 16]: 37.1 nM
Ki [4, 17]: 37 nM
IC50 [4, 18]: 913 nM
Ki [4, 19]: 39.8 nM
IC50 [4, 20]: 983 nM
Ki [4, 21]: 59.7 nM
IC50 [4, 22]: 815 nM
Ki [4, 23]: 11.9 nM
Compound: GPMGMNDQGDSPDFEDLWNSIVPPVADVPWETSYLPESFDEQVFEQLQVSEPYIPTLGGGSPPCSA [C.har p53 P2 full, expressed full-length Atlantic herring p53TAD paralog 2]

Kd [4]: 190 ± 40 nM
IC50 [4, 15]: 1440 nM
Ki [4, 16]: 189 nM
Ki [4, 17]: 190 nM
IC50 [4, 18]: 1470 nM
Ki [4, 19]: 199 nM
IC50 [4, 20]: 1660 nM
Ki [4, 21]: 252 nM
IC50 [4, 22]: 1180 nM
Ki [4, 23]: 117 nM
Compound: GPMGMNQDEMTELPMSQGTFDEIWASNFVNNLDKTILDDLPPAFSNPSIHTLMDLGPSGVEGFVGLELPLDGSAPTPSSSPGMDCLPPTATT [C.har p53 P1 full, expressed full-length Atlantic herring p53TAD paralog 1]

Kd [5]: 230 ± 20 nM
IC50 [5, 15]: 2210 nM
Ki [5, 16]: 229 nM
Ki [5, 17]: 229 nM
IC50 [5, 18]: 2080 nM
Ki [5, 19]: 208 nM
IC50 [5, 20]: 2490 nM
Ki [5, 21]: 277 nM
IC50 [5, 22]: 2060 nM
Ki [5, 23]: 203 nM
Compound: GPMGMTEQEAESLPLSQESFQELWKMMCPPATIHEPLSVNDGWHLESLLSETPLQESIDAGVFDLPTTLPPQPSVSAFNGDAALSST [A.ang p53 P1 full, expressed full-length European eel p53TAD paralog 1]

Kd [5]: 60 ± 10 nM
IC50 [5, 15]: 1230 nM
Ki [5, 16]: 63.5 nM
Ki [5, 17]: 63.5 nM
IC50 [5, 18]: 1360 nM
Ki [5, 19]: 85.1 nM
IC50 [5, 20]: 1080 nM
Ki [5, 21]: 39.5 nM
IC50 [5, 22]: 1240 nM
Ki [5, 23]: 65.8 nM
Compound: GPMGMTEQEGTGALEYSLSQDETFQALWNTVTVPTEDEGWGSLDNQYLVGSPLQDGFDEKLFDVPATPAPPQPSGSALDSGAPPAST [A.ang p53 P2 full, expressed full-length European eel p53TAD paralog 2]
